For 26 compounds, IC50 results are on record in patent publication US20250092065A1, “2-(INDAZOL-5-YL)-6-(PIPERIDIN-4-YL)-1,7-NAPHTHYRIDINE DERIVATIVES AND RELATED COMPOUNDS AS MODULATORS FOR SPLICING NUCLEIC ACIDS AND FOR THE TREATMENT OF PROLIFERATIVE DISEASES” (REMIX THERAPEUTICS INC., priority 2022, published 2025).

Structures are written as SMILES.

For the test, the system named is HTT. Briefly: HiBiT protein abundance assay, HTT (K562 HiBiT knock-in). The format is cell-based, human. The settings on record: HiBiT knock-in K562 cells, 24 hours, top dose 10 μM. Put shortly:
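Steps: seed HiBiT knock-in K562 cells; add compound in 10-point 3-fold series from 10 μM final; incubate 24 h, 37 °C; add lytic HiBiT reagent, shake 5 min, wait 10 min; read luminescence. Normalize to parental K562 and DMSO controls, fit 4PL, take IC50.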
The IC50 is the concentration needed to halve the response being measured. Read a low IC50 as inhibition by little substance. Regarding `Cc1c(O)c(-c2ccc3nc(N4CCC(NCC5CC5)C4)ccc3n2)cc2cn(C)nc12` (centres unmarked) [Compound 284, 5-(6-{3-[(cyclopropylmethyl)amino]pyrrolidin-1-yl}-1,5-naphthyridin-2-yl)-2,7-dimethylindazol-6-ol], the IC50 is below 100 nM.

Regarding `Cc1c(O)c(-c2ccc3nc(N4CCC(NC5CCC5)C4)ccc3n2)cc2cn(C)nc12` (centres unmarked) [Compound 288, 5-{6-[3-(cyclobutylamino)pyrrolidin-1-yl]-1,5-naphthyridin-2-yl}-2,7-dimethylindazol-6-ol], the IC50 is below 100 nM.

`Cc1nc2c(F)c(O)c(-c3ccc4nc(N5CCC(NC6CCC6)C5)ccc4n3)cc2o1` (centres unmarked) [Compound 293, 6-{6-[3-(cyclobutylamino)pyrrolidin-1-yl]-1,5-naphthyridin-2-yl}-4-fluoro-2-methyl-1,3-benzoxazol-5-ol]: the IC50 is below 100 nM.

As for `Cn1cc2cc(-c3ccc4nc(N5CCC(NC67CC(C6)C7)C5)ccc4n3)c(O)cc2n1` (centres unmarked) [Compound 297, 5-[6-(3-{bicyclo[1.1.1]pentan-1-ylamino}pyrrolidin-1-yl)-1,5-naphthyridin-2-yl]-2-methylindazol-6-ol], the IC50 was in the range of 1000 to 10000 nM.

Regarding `Cn1cc2nc(-c3ccc4nc(N5CCC(NC(C)(C)C)C5)ccc4n3)c(O)cc2n1` (centres unmarked) [Compound 298, 5-{6-[3-(tert-butylamino)pyrrolidin-1-yl]-1,5-naphthyridin-2-yl}-2-methylpyrazolo[4,3-b]pyridin-6-ol], the IC50 was below 100 nM.

As to `Cn1cc2cc(-c3ccc4nc(N5CC[C@H](N[C@H]6C[C@@H](F)C6)C5)ccc4n3)c(O)cc2n1` [Compound 299, 2-methyl-5-{6-[(3S)-3-{[(1s,3s)-3-fluorocyclobutyl]amino}pyrrolidin-1-yl]-1,5-naphthyridin-2-yl}indazol-6-ol], the IC50 is below 100 nM.

The compound `Cc1c(O)c(-c2ccc3nc(N4CCC(NC5COC5)C4)ccc3n2)cc2cn(C)nc12` (centres unmarked) [Compound 302, 2,7-dimethyl-5-{6-[3-(oxetan-3-ylamino)pyrrolidin-1-yl]-1,5-naphthyridin-2-yl}Indazol-6-ol] registered a concentration for half-maximal inhibition (IC50) of 100 to 1000 nM.

`Cc1nc2c(C)c(O)c(-c3ccc4nc(N5CCC(NC6(C)CC6)C5)ccc4n3)cc2o1` (centres unmarked) [Compound 309, 2,4-dimethyl-6-(6-{3-[(1-methylcyclopropyl)amino]pyrrolidin-1-yl}-1,5-naphthyridin-2-yl)-1,3-benzoxazol-5-ol]: the IC50 is below 100 nM.

Turning to `Cc1nc2c(C)c(O)c(-c3ccc4nc(N5CCC(NC(C)C)C5)ccc4n3)cc2o1` (centres unmarked) [Compound 312, 6-{6-[3-(isopropylamino)pyrrolidin-1-yl]-1,5-naphthyridin-2-yl}-2,4-dimethyl-1,3-benzoxazol-5-ol], the IC50 was below 100 nM.

For `Cn1cc2cc(-c3ccc4nc(N5CCC(NC6CCC6)C5)ccc4n3)c(O)c(F)c2n1` (centres unmarked) [Compound 315, 5-{6-[3-(cyclobutylamino)pyrrolidin-1-yl]-1,5-naphthyridin-2-yl}-7-fluoro-2-methylindazol-6-ol], the IC50 was below 100 nM.

Consider `Cc1c(O)c(-c2ccc3nc(N4CCC(NC(C)C)C4)ccc3n2)cc2cn(C)nc12` (centres unmarked) [Compound 318, 5-{6-[3-(isopropylamino)pyrrolidin-1-yl]-1,5-naphthyridin-2-yl}-2,7-dimethylindazol-6-ol], for which the IC50 is below 100 nM.

On to `Cc1c(O)c(-c2ccc3nc(N4CC[C@H](NC(C)C)C4)ccc3n2)cc2cn(C)nc12` [Compound 320], for which the IC50 is below 100 nM.

Consider `Cc1nc2c(F)c(O)c(-c3ccc4nc(N5CCC(NC6(C)CC6)C5)ccc4n3)cc2o1` (centres unmarked) [Compound 325, 4-fluoro-2-methyl-6-(6-{3-[(1-methylcyclopropyl)amino]pyrrolidin-1-yl}-1,5-naphthyridin-2-yl)-1,3-benzoxazol-5-ol], for which the IC50 is below 100 nM.

For the compound `Cc1nc2c(F)c(O)c(-c3ccc4nc(N5CCC(NC(C)C)C5)ccc4n3)cc2o1` (centres unmarked) [Compound 328, 4-fluoro-6-{6-[3-(isopropylamino)pyrrolidin-1-yl]-1,5-naphthyridin-2-yl}-2-methyl-1,3-benzoxazol-5-ol], the IC50 was below 100 nM.

The compound `CN[C@@H]1CCN(c2ccc3nc(-c4cc(F)c5nc(C)cn5c4)ncc3n2)C1` [Compound 331, (3R)-1-(2-{8-fluoro-2-methylimidazo[1,2-a]pyridin-6-yl}pyrido[3,2-d]pyrimidin-6-yl)-N-methylpyrrolidin-3-amine] displayed an IC50 of 100 to 1000 nM.

Regarding `CN[C@H]1CCN(c2ccc3nc(-c4cc(F)c5nc(C)cn5c4)ncc3n2)C1` [Compound 332, (S)-1-(2-(8-fluoro-2-methylimidazo[1,2-a]pyridin-6-yl)pyrido[3,2-d]pyrimidin-6-yl)-N-methylpyrrolidin-3-amine], the IC50 fell in the range of 100 to 1000 nM.

In turn, `CC(C)(C)NC1CCN(c2ccc3nc(-c4cc5oc(C6CC6)nc5cc4O)ccc3n2)C1` (centres unmarked) [Compound 333, 6-{6-[3-(tert-butylamino)pyrrolidin-1-yl]-1,5-naphthyridin-2-yl}-2-cyclopropyl-1,3-benzoxazol-5-ol] displayed an IC50 of 100 to 1000 nM.

For the compound `COCc1nc2cc(O)c(-c3ccc4nc(N5CCC(NC(C)(C)C)C5)ccc4n3)cc2o1` (centres unmarked) [Compound 334, 6-{6-[3-(tert-butylamino)pyrrolidin-1-yl]-1,5-naphthyridin-2-yl}-2-(methoxymethyl)-1,3-benzoxazol-5-ol], the IC50 lay within 100 to 1000 nM.

Turning to `COc1cc2nc(C3COC3)oc2cc1-c1ccc2nc(N3CCC(NC(C)(C)C)C3)ccc2n1` (centres unmarked) [Compound 335], the IC50 is 1000 to 10000 nM.

For `CC(C)(C)NC1CCN(c2ccc3nc(-c4cc5oc(CO)nc5cc4O)ccc3n2)C1` (centres unmarked) [Compound 336, 6-{6-[3-(tert-butylamino)pyrrolidin-1-yl]-1,5-naphthyridin-2-yl}-2-(hydroxymethyl)-1,3-benzoxazol-5-ol], the IC50 is below 100 nM.

`CNC1CCN(c2ccc3nc(-c4cc5cn(C)nc5c(C)c4O)ncc3n2)C1` (centres unmarked) [Compound 337, 2,7-dimethyl-5-{6-[3-(methylamino)pyrrolidin-1-yl]pyrido[3,2-d]pyrimidin-2-yl}indazol-6-ol]: the IC50 fell in the range of 100 to 1000 nM.

Regarding `Cc1c(O)c(-c2ncc3nc(N4CCNCC4)ccc3n2)cc2cn(C)nc12` [Compound 338, 2,7-dimethyl-5-[6-(piperazin-1-yl)pyrido[3,2-d]pyrimidin-2-yl]indazol-6-ol], the IC50 was in the range of 100 to 1000 nM.

For the compound `Cc1nc2cc(O)c(-c3ccc4nc(N5CCC(NC(C)(C)C)C5)ccc4n3)cc2n1C` (centres unmarked) [Compound 339, 6-{6-[3-(tert-butylamino)pyrrolidin-1-yl]-1,5-naphthyridin-2-yl}-1,2-dimethyl-1,3-benzodiazol-5-ol], the IC50 fell in the range of 100 to 1000 nM.

As to `Cc1nc2cc(-c3ccc4nc(N5CCC(NC(C)(C)C)C5)ccc4n3)c(O)cc2n1C` (centres unmarked) [Compound 340, 6-{6-[3-(tert-butylamino)pyrrolidin-1-yl]-1,5-naphthyridin-2-yl}-2,3-dimethyl-1,3-benzodiazol-5-ol], the IC50 was 100 to 1000 nM.

Compound `Cn1cc2cc(-c3ccc4nc(N5CCC(NC67CC(O)(C6)C7)C5)ccc4n3)c(O)cc2n1` (centres unmarked) [Compound 341, 5-{6-[3-({3-hydroxybicyclo[1.1.1]pentan-1-yl}amino)pyrrolidin-1-yl]-1,5-naphthyridin-2-yl}-2-methylindazol-6-ol] displayed an IC50 of 100 to 1000 nM.

In the case of `Cc1c(O)c(-c2ncc3nc(N4CCC5(CCN5)C4)ccc3n2)cc2cn(C)nc12` (centres unmarked) [Compound 342, 5-(6-{1,6-diazaspiro[3.4]octan-6-yl}pyrido[3,2-d]pyrimidin-2-yl)-2,7-dimethylindazol-6-ol], the IC50 lay in the range of 100 to 1000 nM.
